Results published in article PMC9088073, “Discovery of 2-Phenylquinolines with Broad-Spectrum Anti-coronavirus Activity” (ACS Medicinal Chemistry Letters, 2022).
Like-named read-outs stand apart in the source and are kept apart here. Marks after values point to notes of the source that are not given here.

Assays:
[1] = molecular target: SARS-CoV-2 nsp13 ATPase (Severe acute respiratory syndrome coronavirus 2, UniProt P0DTD1); assay type: biochemical; conditions: for IC50: read-out: helicase ATPase IC50
[2] = tested on: SARS-CoV-2; experiment: microbe, parasite or virus in culture; assay type: cell-based; conditions: […], mean ± SD of duplicate experiments; for EC50: Severe acute respiratory syndrome coronavirus 2, read-out: Anti-SARS-CoV-2 activity EC50
[3] = tested on: HCoV-229E; experiment: microbe, parasite or virus in culture; assay type: cell-based; conditions: Human coronavirus 229E, HEL 299, read-out: HCoV-229E EC50
[4] = in vitro; conditions: human
[5] = tested on: HCoV-OC43; experiment: microbe, parasite or virus in culture; assay type: cell-based; conditions: Betacoronavirus 1, OC43, HEL 299, read-out: HCoV-OC43 EC50
[6] = in vitro; conditions: chlorocebus sabaeus
[7] = tested on: VeroE6 cells; conditions: uninfected VeroE6 cells, MTS assay; mean ± SD of duplicate experiments
[8] = molecular target: SARS-CoV-2 nsp12 RdRp (Severe acute respiratory syndrome coronavirus 2, UniProt P0DTD1); experiment: SARS-CoV-2 nsp12 RdRp activity, fluorescent-based assay; assay type: biochemical; conditions: in the presence of the highest concentration of tested compound (30 μM); read-out: RdRp percentage of control
[9] = molecular target: SARS-CoV-2 nsp13 helicase (Severe acute respiratory syndrome coronavirus 2, UniProt P0DTD1); experiment: biochemical; assay type: biochemical; conditions: for IC50: SARS-CoV-2 nsp13 helicase-associated activity, read-out: helicase unwinding IC50; for remaining activity at 30 µM: in the presence of the highest concentration of tested compound (30 μM), read-out: helicase unwinding percentage of control
[10] = tested on: autophagy (LC3-II puncta) in VeroE6 cells; experiment: Autophagy inhibition assay, LC3-II immunofluorescence in VeroE6 cells; assay type: cell-based; conditions: for effect on autophagy (LC3-II accumulation), in words: 10 μM, 4 h, compared to CQ
[11] = SARS-CoV-2 nsp13 ATPase-associated activity
[12] = in the presence of the highest concentration of tested compound (30 μM; 3 μM for SSYA10-001)

Structure (SMILES) | EC50 [2] [µM] | EC50 [3] [µM] | CC50 [4] [µM] | EC50 [5] [µM] | CC50 [6] [µM] | further results
C=CCn1c(S)nnc1CSc1ccccc1[N+](=O)[O-] [SSYA10-001, reference compound] |  |  |  |  |  | helicase ATPase percentage of control [1]: >3 (90%) ^d; IC50 [1]: > 3 µM
CCCOc1ccc(-c2cc(OCCN3CCNCC3)c3cccc(OC)c3n2)cc1 [Compound 5i] | 7.1 ± 4.2 | 0.3 ± 0.05 | 8 ± 1.3 | 1.7 ± 0.2 | 30.3 ± 0.8 | 
CCCOc1ccc(-c2cc(OCCN3CCN(Cc4ccccc4)CC3)c3cc(OC)cc(OC)c3n2)cc1 [Compound 9f] | > 100 |  |  |  | > 100 | VeroE6 cells CC50 [7]: lacked cytotoxicity
CCCOc1ccc(-c2cc(OCCN(CC)CC)c3cccc(OC)c3n2)cc1 [Compound 5a] | 9.1 ± 3.05 | 1.3 ± 0.9 | 10.4 ± 0.8 | 0.6 ± 0.1 | > 100 | 
CCCOc1ccc(-c2cc(OCCN3CCCCC3)c3c(OC)ccc(OC)c3n2)cc1 [Compound 7k] | 2.7 ± 1.9 | 9.4 ± 3.6 | 95.3 ± 3.3 | 7.7 ± 3.3 | 23.8 ± 5.7 | IC50 [1, 11]: > 30 µM; helicase ATPase percentage of control [1, 12]: 100%; remaining activity at 30 µM [8]: 100%; IC50 [9]: 1.41 ± 0.64 µM
CCCOc1ccc(-c2cc(OCCN3CCc4cc(OC)c(OC)cc4C3)c3cc(OC)cc(OC)c3n2)cc1 [Compound 9g] | > 100 |  |  |  | > 100 | Anti-SARS-CoV-2 activity EC50 [2]: devoid of antiviral activity; effect on autophagy (LC3-II accumulation), in words [10]: minimal effect on the autophagy
CCCOc1ccc(-c2cc(OCCN3CCN(Cc4ccccc4)CC3)c3cccc(OC)c3n2)cc1 [Compound 5f] | 35.9 ± 32.2 |  |  |  | > 100 | VeroE6 cells CC50 [7]: lacked cytotoxicity; melting point: 95 to 97 °C
CCCOc1ccc(-c2cc(OCCN(CC)CC)c3c(OC)ccc(OC)c3n2)cc1 [Compound 7a] | 4.6 ± 0.2 | 0.7 ± 0.3 | 9.9 ± 0.8 | 2 ± 0.2 | 24.6 ± 0.1 | 
CCN(CC)CCCC(C)Nc1ccnc2cc(Cl)ccc12 (stereo not shown) [Chloroquine, chloroquine, reference compound] |  |  | 33.6 ± 1.3 | < 0.8 | 83.4 ± 4.2 | increase in the intensity of the cytoplasmic LC3 puncta ([10]; 10 μM for 4 h): 9 fold
N#C[C@@]1(c2ccc3c(N)ncnn23)O[C@H](CO)[C@@H](O)[C@H]1O [GS-441524, reference compound] | 0.7 ± 0.07 | 0.9 ± 0.1 | > 100 |  |  | 
CCCOc1ccc(-c2cc(OCCN(CC)CC)c3cc(OC)cc(OC)c3n2)cc1 [Compound 9a] | 13 ± 10 | 3.5 ± 2.7 | 43.5 ± 5.6 | 2.2 ± 0.5 | > 100 | 
CCCOc1ccc(-c2cc(OCCN3CCCC3)c3cc(OC)cc(OC)c3n2)cc1 [Compound 9j] | 5.9 ± 2.4 | 40 ± 20.8 | > 100 | 22.7 ± 2.8 | > 100 | IC50 [1, 11]: > 30 µM; helicase ATPase percentage of control [1, 12]: 100%; remaining activity at 30 µM [8]: 100%; IC50 [9]: > 30 µM; remaining activity at 30 µM [9]: 57%
CCCOc1ccc(-c2cc(OCCN3CCN(Cc4ccccc4)CC3)c3ccccc3n2)cc1 [Compound 1f] | 11.9 ± 5.5 | 61.3 ± 32.2 | > 100 | 92.3 ± 11 | > 100 | VeroE6 cells CC50 [7]: lacked cytotoxicity
CCCOc1ccc(-c2cc(OCCN3CCN(Cc4ccccc4)CC3)c3c(OC)cc(OC)cc3n2)cc1 [Compound 6f] | 7.9 ± 5.6 | 2.2 ± 0.7 | 35.6 ± 0.2 | 1.9 ± 0.2 | > 100 | IC50 [1, 11]: > 30 µM; helicase ATPase percentage of control [1, 12]: 96%; VeroE6 cells CC50 [7]: lacked cytotoxicity; remaining activity at 30 µM [8]: 100%; IC50 [9]: > 30 µM; remaining activity at 30 µM [9]: 55%
CCCOc1ccc(-c2cc(OCCN(CC)CC)c3cc(OC)c(OC)cc3n2)cc1 [Compound 8a] | 5.1 ± 1.4 | 1.8 ± 0.4 | 9.2 ± 0.1 | 1.9 ± 0.4 | 70.3 ± 23.7 | 
CCCOc1ccc(-c2cc(OCCN3CCCCC3)c3cc(OC)c(OC)cc3n2)cc1 [Compound 8k] | 2.6 ± 1.4 | 0.2 ± 0.2 | 12.3 ± 1.1 | 1.6 ± 0.2 | 11.1 ± 1.3 | 
CCCOc1ccc(-c2cc(OCCN3CCc4cc(OC)c(OC)cc4C3)c3c(OC)cc(OC)cc3n2)cc1 [Compound 6g] | 8.8 ± 5.6 | 2.9 ± 0.05 |  | 1.5 ± 0.1 | > 100 | IC50 [1, 11]: > 30 µM; helicase ATPase percentage of control [1, 12]: 90%; remaining activity at 30 µM [8]: 62%; IC50 [9]: 0.42 ± 0.23 µM
CCCOc1ccc(-c2cc(OCCN3CCCC3)c3c(OC)ccc(OC)c3n2)cc1 [Compound 7j] | 11.3 ± 2.1 | 0.6 ± 0.3 | 8.7 ± 0.8 | 1.8 ± 0.7 | 89.8 ± 2.8 | 
CCCOc1ccc(-c2cc(OCCN3CCc4cc(OC)c(OC)cc4C3)c3cccc(OC)c3n2)cc1 [Compound 5g] | > 100 |  |  |  | > 100 | Anti-SARS-CoV-2 activity EC50 [2]: devoid of antiviral activity; effect on autophagy (LC3-II accumulation), in words [10]: minimal effect on the autophagy
